Laboratory results as given in publication PMC12264943, “Identification of New Human P2X7 Antagonists Using Ligand- and Structure-Based Virtual Screening” (Journal of Chemical Information and Modeling, 2025).
Where two headings read alike, the source gives them in different places.

Tests used:
[1] = target: T1, hP2X7 (Homo sapiens, UniProt Q99572); assay: YO-PRO 1 dye uptake assay, HEK-293 cells stably transfected with hP2X7; format: cell-based; conditions: for EC50: read-out: ATP EC50
T1 construct: expressed in transfected cells; host or cells: HEK-293, stably transfected (gift of E. Adinolfi's group, Ferrara University)
T1 sequence (Q99572 1-595): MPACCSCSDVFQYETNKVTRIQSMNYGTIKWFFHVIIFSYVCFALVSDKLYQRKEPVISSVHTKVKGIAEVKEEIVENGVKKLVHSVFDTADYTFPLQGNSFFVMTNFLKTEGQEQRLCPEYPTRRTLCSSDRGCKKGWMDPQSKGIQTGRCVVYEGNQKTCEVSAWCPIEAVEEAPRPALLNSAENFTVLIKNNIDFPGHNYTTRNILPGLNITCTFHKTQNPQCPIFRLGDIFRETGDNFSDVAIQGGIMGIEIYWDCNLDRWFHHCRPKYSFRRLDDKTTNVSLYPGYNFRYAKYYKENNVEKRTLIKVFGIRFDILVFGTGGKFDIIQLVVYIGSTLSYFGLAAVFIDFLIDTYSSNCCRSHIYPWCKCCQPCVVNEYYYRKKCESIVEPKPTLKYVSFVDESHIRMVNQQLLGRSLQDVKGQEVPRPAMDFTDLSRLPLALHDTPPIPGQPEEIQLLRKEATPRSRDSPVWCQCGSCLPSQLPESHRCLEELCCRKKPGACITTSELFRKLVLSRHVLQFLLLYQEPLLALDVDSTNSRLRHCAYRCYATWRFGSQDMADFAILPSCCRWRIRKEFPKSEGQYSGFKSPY
Description: Astrocytoma 1321 N1 (established by Dr. Gaia Pasqualetto) and HEK-293 (kindly gifted by E. Adinolfi’s group, Ferrara University) both stably transfected with hP2X7, were used to assess the activity of the small molecules selected from the VS. Cells were maintained in DMEM:F12 (PanBiotech) supplemented with 10% FBS, 1% pen-strep, and 150 μg/mL G418 (PanBiotech).
Astrocytoma 1321 N1 cells (2–2.5 × 10^4 cells/well) and HEK-293 cells (4–5 × 10^4 cells/well) expressing hP2X7 were seeded in poly-L-lysine-coated 96-well plates (Sarstedt) 24 h before the experiment. YO-PRO 1 dye was prepared at 5 μM in extracellular solution with low divalent cations (ECS-LD) buffer (147 mM NaCl, 10 mM HEPES, 13 mM glucose, 0.2 mM CaCl2, 2 mM KCl, pH 7.4) and added to cells after washing them with Dulbecco’s phosphate- buffered saline (DPBS) (PanBiotech) and incubated for 20 min at 37 °C. ATP-induced dye uptake, mediated by hP2X7 activation, was monitored using a Clariostar plate reader (excitation: 485 nm; emission: 538 nm) for 30 cycles (75–150 s/cycle), after recording the baseline for five cycles. hP2X7 activation was quantified at cycle 10 by calculating the fluorescence intensity (FI) ratio (Δ(Fcycle 10–F cycle 1)/cycle time).
Compounds 2 and 9, identified as hits, were further evaluated for concentration-dependent inhibition (IC50) of hP2X7 activation in the YO-PRO 1 dye uptake assay using HEK-293 cells stably transfected with hP2X7 (unfortunately, at this point in the study, the stably transfected 1321N1 cells lost P2X7 expression, and we were unable to recover them from frozen aliquots), for which the ATP EC50 was determined to be approximately 1 mM (Supporting material Figure 4C). Seven concentrations (100 to 0.03 μM) were tested, but due to precipitation at 100 μM, the DMSO concentration was increased to 1%.
3 Inhibitory concentration response evaluation of compounds 2 and 9 and their groups highlighted for SAR. […] Compound activity was evaluated along a time of 20 min (75 s per cycle) after ATP addition (700 μM). The fluorescence intensity (FI) values of the first 10 cycles were considered for assessing their ability to inhibit hP2X7. The curves represent three biological replicates (n = 4 per replicate). Data were normalized by setting as 100% the FI recorded by hP2X7 HEK-293 cells incubated in 1% DMSO and stimulated by ATP, and as 0% the FI recorded by the same cells but treated with ECS-LD (assay buffer). (C) Highlighted areas of compound 2 considered for SAR study. R1 refers to the ethyl-benzyl group of the molecules, and R2 and R3 refer to the benzo-(1,3)-dioxol groups. (D) Highlighted areas of compound 9 considered for SAR study. We have defined the area highlighted in yellow and numbered as 1 as the “front” region of the molecule and the one colored in pink and named as 2 as the “back” region of the molecule. L highlights the urea and amide linkers of compounds 2 and 9, respectively.
4 Evaluation of compound 2 and 9 analogue activity using YO-PRO 1 and MPR assays. The activity of compound 2 (A and B) and 9 (C and D) analogues was evaluated in YO-PRO 1 (A and C) and MPR (B and D) assays. The compounds were tested at 10 μM and preincubated for either 20 (YO-PRO 1) or 30 min (MPR). The baseline was recorded for 5 cycles before ATP treatment (1 mM). Fluorescence was recorded for 25 (YO-PRO 1) or 5 min (MPR). The data were normalized by setting as 100% for the fluorescence measured from hP2X7 HEK-293 cells incubated with vehicle (0.1% DMSO) and treated with 1 mM ATP and 0% for the fluorescence recorded by the cells not treated with ATP. The data shown correspond to three independent biological replicates (3 technical replicates per experiment; error bars represent the SEM from the mean values of each biological replicate (n = 3)). The statistical analysis was performed with one-way Anova using Dunnett’s function (P**** < 0.0001; P*** < 0.0003; P** < 0.002; P* < 0.02).

[2] = system: HEK-293 WT cells; assay: Cytotoxicity assay (CellTiter Blue); format: cell-based; conditions: 10 μM, 24 h, nontransfected HEK-293 cells
Description: HEK-293 WT cells were seeded at 4 × 10^4 cells/well in 96-well plates precoated with poly-L-lysine. After 24 h, the cells were washed with DPBS and treated with test compounds (10 μM) in 2% FBS-containing medium for 24 h. After this, the medium containing the test compounds was replaced with 20% CellTiter-Blue reagent (Promega) in 2% FBS medium. After a 2-h incubation, fluorescence (excitation: […]; emission: […]) was measured using a Clariostar plate reader. Data were normalized to untreated control cells (100%) and wells without cells (0%).
5 Concentration inhibition curve determination for compound 2g (A) and evaluation of cytotoxicity for compounds 2, 9, and 2g. […] The data on the graph represent the mean from three independent experiments (n = 3 replicates per experiment). (B) The cytotoxicity of the compounds was evaluated on nontransfected HEK-293 cells using a CellTiter Blue assay. The cells were incubated for 24 h with the compounds at 10 μM. The fluorescent signal obtained from vehicle-treated cells (0.1% DMSO) was used to normalize the data to 100%, and the one obtained from wells not containing cells (BLANK) was set as 0%. The data are the combination of three biological replicates (error bars represent the SEM (n = 3)) analyzed by one-way ANOVA using Dunnet’s function (P**** < 0.0001; **< 0.002; * < 0.02; ns, non significant).
The potential cytotoxicity of the hit compounds identified, 2, 9, and 2g, was assessed at 10 μM by CellTiter Blue assay using nontransfected HEK-293 cells (Figure B).

[3] = YO-PRO 1 uptake, HEK-293 hP2X7 cells
[4] = Table 1, table names no assay, values of 2 and 9 are from YO-PRO 1 dye uptake in hP2X7 HEK-293 cells, read-out: IC50

Structure (SMILES) | Hill Slope of ATP concentration-response curve [1, 3] | EC50 ([1]; YO-PRO 1 uptake, HEK-293 hP2X7 cells, approximate value) [µM] | EC50 [1, 3] [µM] | IC50 [1, 4] [µM] | IC50 ([1]; YO-PRO 1 dye uptake, hP2X7 HEK-293 cells, 100 to 0.03 μM, 1% DMSO, read-out: IC50, inhibition of hP2X7 activation) [µM] | reduction in cell viability [2]
Nc1ncnc2c1ncn2[C@@H]1O[C@H](COP(=O)(O)OP(=O)(O)OP(=O)(O)O)[C@@H](O)[C@H]1O [ATP, reference compound] | 1.397 | ~1000 | 1140 ± 239 |  |  | 
O=C(NCCc1ccccc1)NC(Cc1ccc2c(c1)OCO2)Cc1ccc2c(c1)OCO2 [Compound 2] |  |  |  | 1.88 | 1.87 | ~10%
O=C(CSc1ccccc1C(=O)Nc1ccnn1Cc1cccnc1)Nc1ccc2c(c1)OCO2 [Compound 9] |  |  |  | 6.82 |  | no significant reduction in cell viability
